Source: article PMC11714206, “Massively Parallel Screening of Toll/Interleukin‐1 Receptor (TIR)‐Derived Peptides Reveals Multiple Toll‐Like Receptors (TLRs)‐Targeting Immunomodulatory Peptides” (Advanced Science, 2024)
One block for each substance: values may come before it.

Target: T1, MAL^TIR (Homo sapiens, UniProt P58753)
T1 construct: MAL (residues 79–221); 6xHis; made in house; host or cells: E. coli BL21 (DE3)
Assay: T‐Surf phage library (P8 and P3) selection against MAL^TIR, four rounds, NGS read counts
Format: binding
Settings: for P8_MAL Rank (after) / P8_MAL Rank (before): P8 library; for Population: 4th round of selection against MAL TIR, share of NGS reads; for P3_MAL Rank (after) / P3_MAL Rank (before): P3 library
Protocol: T‐Surf libraries were screened against the immobilized TIR domains of two major human TLR adaptor proteins, MAL^TIR and MyD88^TIR, allowing cross‐species selection of TIR‐binding motifs with 190 946 TIR‐derived peptides in a single binding assay (Scheme 1). Enriched phage pools from the fourth round of selection were analyzed using NGS after barcoding the peptide‐coding regions of the phage pools.
Phage display screening was performed by coating two wells of a 96‐well plate (Maxisorp, Thermo Fisher Scientific) with 100 µL of 5 µg mL^−1 TIR domains overnight; then, the coated wells were blocked with 200 µL of blocking buffer (0.2% BSA in PBS) and set aside for 1 h at 4 °C with gentle shaking. Next, 100 µL of the phage library was added to the wells and incubated for 1 h at room temperature (RT; 20 – 22 °C) with gentle shaking. The plate was washed four times with PBS containing 0.5% Tween‐20; the bound phages were eluted by adding 100 µL of 100 mM HCl to each well. The elute was neutralized with 10 µL of 1.0 M Tris‐HCl (pH 11.0). E. coli TG1 cells were grown to the log phase (A600 = ≈0.6), and 1 mL of the culture was incubated with 100 µL of the eluted phages for 30 min at 37 °C, with shaking at 200 rpm. Next, 1 µL of M13KO7 helper phages was added, followed by incubation for 45 min at 37 °C, with shaking. Subsequently, the cells were transferred to 25 mL of 2× yeast extract tryptone/carbenicillin/kanamycin medium and incubated overnight at 37 °C with shaking at 200 rpm. The amplified phages were precipitated with 20% PEG‐8000/2.5 M NaCl to be used for the next round of selection.
The naïve T‐Surf libraries in P8 and P3 and the enriched phage pools after four rounds were barcoded for NGS as previously described.^[ [59] ^] Briefly, 5 µL of the phage pool was used as a template for 20 cycles of a 50 µL PCR reaction using […] each of forward and reverse barcoded primers and PrimeSTAR Max DNA Polymerase. The PCR products were purified using Expin Gel SV (GeneAll). The NGS samples were quantified using qPCR, following the qPCR Quantification Protocol Guide (KAPA Library Quantification kits for Illumina Sequencing Platform), and qualified using the TapeStation High Sensitivity D1000 ScreenTape (Agilent Technologies). The indexed libraries were further sequenced by Macrogen (Seoul, Republic of Korea) using the NovaSeq platform (Illumina) with 100 bp paired‐end reads. The reads were demultiplexed by barcodes and filtered for an average Phred quality score of at least 30, followed by trimming the flanking consensus sequences using Cutadapt (version 2.3). Peptide sequence populations were analyzed according to the read counts.

[1] = P3_MAL: rank by count after grouping
[2] = P3_MAL: rank by count before grouping
[3] = selection against MAL TIR, rank by count after grouping
[4] = selection against MAL TIR, rank by count before grouping
[5] = 4R selection against MAL, rank after grouping
[6] = 4R selection against MAL, rank before grouping
[7] = P8_MAL pool: P8 T-Surf phage library
[8] = selection against MAL, rank by count after grouping
[9] = selection against MAL, rank by count before grouping
[10] = selection against MAL, rank after grouping
[11] = selection against MAL, rank before grouping
[12] = P8_MAL: rank by count after grouping
[13] = P8_MAL: rank by count before grouping
[14] = P3_MAL pool: P3 T-Surf phage library

T1 sequence (P58753 79-221): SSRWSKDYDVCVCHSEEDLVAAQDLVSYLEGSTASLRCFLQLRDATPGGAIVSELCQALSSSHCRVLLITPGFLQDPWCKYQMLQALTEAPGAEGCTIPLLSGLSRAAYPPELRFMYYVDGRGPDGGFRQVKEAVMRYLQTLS

Substance: RNFVAYLFQALANIGI
Population [7]: 0.00371%

Substance: WHFHVRLCLRKLLQAM
P3_MAL Rank (after) [8]: 694
P3_MAL Rank (before) [9]: 1290

Substance: NQWRNSLTAAANLSGR
Rank (after) [1]: 176
Rank (before) [2]: 3342

Substance: DWSLSKLSQHFLKREK
P3_MAL Rank (after) [10]: 485
P3_MAL Rank (before) [11]: 1909

Substance: FTLSVHVRNWLAGAFI
P8_MAL Rank (after) [5]: 606
P8_MAL Rank (before) [6]: 1091

Substance: LFYERLVSLILRHTRV
P8_MAL Rank (after) [5]: 624
P8_MAL Rank (before) [6]: 1103

Substance: AFFWAQLKSVLGNRTM
Population [7]: 0.00309%

Substance: AFLYTFLINLTHPQF
P8_MAL Rank (after) [3]: 275
P8_MAL Rank (before) [4]: 1852

Substance: NGHGSAIIKEIVVTSW
Rank (after) [1]: 468
Rank (before) [2]: 3252

Substance: NQLRNALTASANLSGW
P3_MAL Rank (after) [5]: 613
P3_MAL Rank (before) [6]: 3325

Substance: TFLGPLYNALVQAGIP
Rank (after) [12]: 120
Rank (before) [13]: 2553

Substance: TFLGHLYNALVQAGKL
P8_MAL Rank (after) [3]: 230
P8_MAL Rank (before) [4]: 2583

Substance: AFLYAFLINLTHPTNI
Rank (after) [12]: 142
Rank (before) [13]: 1812

Substance: LVAHEISKKMKIFATI
Rank (after) [12]: 182
Rank (before) [13]: 923

Substance: KEVEGWRDALTKAPI
P3_MAL Rank (after) [5]: 644
P3_MAL Rank (before) [6]: 3576

Substance: DTALTNSGFHIFRDNE
P3_MAL Rank (after) [8]: 689
P3_MAL Rank (before) [9]: 1984

Substance: YFLHFLLFSRPEPAYI
Rank (after) [12]: 114
Rank (before) [13]: 1463

Substance: PDKDKGGENAFINNIV
P3_MAL Rank (after) [10]: 488
P3_MAL Rank (before) [11]: 2636

Substance: WFYEPLLSMLLRATKV
P8_MAL Rank (after) [8]: 706
P8_MAL Rank (before) [9]: 1296

Substance: WFYERLVSLMLRDKKV
Rank (after) [12]: 172
Rank (before) [13]: 1269

Substance: RGFLSHLYQGLKNRGI
Rank (after) [1]: 423
Rank (before) [2]: 2362

Substance: RSFVAYLFQALANKGI
Population [7]: 0.0034%

Substance: YAFTGHLHRYLLQRGG
P3_MAL Rank (after) [10]: 543
P3_MAL Rank (before) [11]: 1418

Substance: YTALTKSGVHAFRDND
Rank (after) [1]: 475
Rank (before) [2]: 1552

Substance: AFFCAHLRTVLGKPTM
P8_MAL Rank (after) [3]: 267
P8_MAL Rank (before) [4]: 1586

Substance: DTILKKGESIAPELLG
P8_MAL Rank (after) [10]: 548
P8_MAL Rank (before) [11]: 2000

Substance: LFLGESLKLLRRSDGR
P8_MAL Rank (after) [5]: 652
P8_MAL Rank (before) [6]: 2150

Substance: YAFTGHLQRYLVQRGE
P3_MAL Rank (after) [8]: 719
P3_MAL Rank (before) [9]: 1435

Substance: TFLGHLYNALLQPGIH
Rank (after) [12]: 181
Rank (before) [13]: 2616

Substance: YAFTGHPHRSLVQRGV
P3_MAL Rank (after) [3]: 271
P3_MAL Rank (before) [4]: 1446

Substance: KERLHQWKLALTQAPI
P3_MAL Rank (after) [5]: 661
P3_MAL Rank (before) [6]: 3604

Substance: WFYERLESLILRDTKV
Population [7]: 0.00278%

Substance: WFYKRLVSLILRDTKV
Population [7]: 0.00402%

Substance: AFFWTHLKNLPRNPTF
P8_MAL Rank (after) [3]: 285
P8_MAL Rank (before) [4]: 1721

Substance: PNLRTKVLNYLMRSKT
Population [14]: 0.00451%

Substance: VEPTQVRTQSGAAENA
P3_MAL Rank (after) [8]: 753
P3_MAL Rank (before) [9]: 1651

Substance: LHNNRILVLITLPTNV
P3_MAL Rank (after) [5]: 671
P3_MAL Rank (before) [6]: 2132

Substance: SSCREGLWRLLELCKK
P3_MAL Rank (after) [5]: 635
P3_MAL Rank (before) [6]: 3210

Substance: RGFLSHLRHHLQAIDH
Population [14]: 0.00488%

Substance: DWFREQLRPALKERLP
Rank (after) [1]: 125
Rank (before) [2]: 787

Substance: AFLYTLLINLTHPTNF
Population [7]: 0.00432%

Substance: TFLGHLYNALVQAAF
Rank (after) [12]: 453
Rank (before) [13]: 2584

Substance: AFLYTFDQSDPSDQF
P8_MAL Rank (after) [10]: 509
P8_MAL Rank (before) [11]: 1822

Substance: KERLHQWKLALTQAA
P3_MAL Rank (after) [10]: 526
P3_MAL Rank (before) [11]: 3601

Substance: HHNGSYCEALAEHKER
P3_MAL Rank (after) [10]: 486
P3_MAL Rank (before) [11]: 2815

Substance: WFYERLVSLILRVTKI
P8_MAL Rank (after) [10]: 553
P8_MAL Rank (before) [11]: 1199

Substance: RNFVAYLLQALANKSI
Rank (after) [12]: 405
Rank (before) [13]: 2222

Substance: SSFREGLWRLPELSKK
Population [14]: 0.00413%

Substance: MSHLYQGLKNRGI
Population [14]: 0.00413%

Substance: ALHNAFWDRLWTKLAP
P3_MAL Rank (after) [10]: 544
P3_MAL Rank (before) [11]: 1842

Substance: SNLREGLWGLLELSKK
P3_MAL Rank (after) [8]: 684
P3_MAL Rank (before) [9]: 3216

Other lines, results leading:

Rank (after) [1]: 171
Rank (before) [2]: 2695
Substance: PNLRTNVLHYLMRTKT

P8_MAL Rank (after) [3]: 239
P8_MAL Rank (before) [4]: 2637
Substance: TLLCHLYNALVQAGIH

P8_MAL Rank (after) [5]: 603
P8_MAL Rank (before) [6]: 2242
Substance: RNLVAYLLQPRANKCI

P8_MAL Rank (after) [5]: 609
P8_MAL Rank (before) [6]: 1751
Substance: AFFRDQLRTVLGKPTM

P8_MAL Rank (after) [8]: 678
P8_MAL Rank (before) [9]: 2634
Substance: TFHSHLYNALVQAGIH

P3_MAL Rank (after) [5]: 620
P3_MAL Rank (before) [6]: 3479
Substance: NSFRERLRHLMAHSKM

P8_MAL Rank (after) [10]: 530
P8_MAL Rank (before) [11]: 2042
Substance: ELFLDQVLAVLVKPTM

Population [7]: 0.0034%
Substance: WFFERLVSLILRDTKV

Rank (after) [1]: 480
Rank (before) [2]: 1431
Substance: YAFTGHLHQFHSWV

Population [14]: 0.00338%
Substance: YAFTGHLHRYLVQRGA

Rank (after) [12]: 397
Rank (before) [13]: 2600
Substance: TFLGHLYNTLVHAGTH

P3_MAL Rank (after) [10]: 541
P3_MAL Rank (before) [11]: 2842
Substance: HHKGSYGEALHQFHSWV

Population [7]: 0.00432%
Substance: WFMNVW*A*FCVIPKX

Rank (after) [1]: 95
Rank (before) [2]: 95
Substance: LGKPGVTDEAQETGSL

P8_MAL Rank (after) [5]: 616
P8_MAL Rank (before) [6]: 1968
Substance: AFLDPFLINLIQASIL

Population [7]: 0.00278%
Substance: YFLHFLLFSRLETEYI

P8_MAL Rank (after) [5]: 660
P8_MAL Rank (before) [6]: 1163
Substance: WFYERLVGLILRETEG

P8_MAL Rank (after) [10]: 547
P8_MAL Rank (before) [11]: 1298
Substance: WFYESLVSLLTRDTKV

P3_MAL Rank (after) [3]: 257
P3_MAL Rank (before) [4]: 1473
Substance: YAFTSHLHRSLVQRGV

Rank (after) [1]: 451
Rank (before) [2]: 1266
Substance: WFWNNLKYALPLRYDP

P3_MAL Rank (after) [8]: 770
P3_MAL Rank (before) [9]: 2080
Substance: EKIVEWVWEKAHNRFK

P8_MAL Rank (after) [5]: 645
P8_MAL Rank (before) [6]: 1580
Substance: AFFLAQLKSVMGNPTM

Rank (after) [12]: 472
Rank (before) [13]: 1943
Substance: AYAYSRLVLLPLLELS

Rank (after) [1]: 411
Rank (before) [2]: 2093
Substance: LVAHAISKKMKLFATI

Rank (after) [12]: 474
Rank (before) [13]: 1228
Substance: WFYERLVSLILRATQV

P8_MAL Rank (after) [10]: 565
P8_MAL Rank (before) [11]: 1499
Substance: YFLHFLLVSRAEAEFI

P3_MAL Rank (after) [8]: 752
P3_MAL Rank (before) [9]: 1404
Substance: YAFTGHLHRYLVQRKQI

P3_MAL Rank (after) [5]: 626
P3_MAL Rank (before) [6]: 2895
Substance: HQARWNRPWAKLKPPT

Rank (after) [12]: 418
Rank (before) [13]: 1716
Substance: AFFWPQLKSMLRNTTV

Rank (after) [12]: 129
Rank (before) [13]: 1172
Substance: WFYERLVGLIMRDTKV

P3_MAL Rank (after) [5]: 618
P3_MAL Rank (before) [6]: 3319
Substance: NLWKLWTKPGGVRDDR

Rank (after) [1]: 151
Rank (before) [2]: 1485
Substance: YALTGQLHRYLVQRGV

P3_MAL Rank (after) [3]: 206
P3_MAL Rank (before) [4]: 2531
Substance: RLLKWKEEMHQFHSWV

Rank (after) [12]: 400
Rank (before) [13]: 2621
Substance: TFLDRLYNPLVHAGIH

P8_MAL Rank (after) [3]: 250
P8_MAL Rank (before) [4]: 1179
Substance: WFYERLVILVLRDTKG

P8_MAL Rank (after) [3]: 255
P8_MAL Rank (before) [4]: 1859
Substance: AFLYTFLINPTHPTNS

P8_MAL Rank (after) [3]: 197
P8_MAL Rank (before) [4]: 779
Substance: YFLHFLLFSLRKPSI

Population [14]: 0.00564%
Substance: YAFTGHLHRYLV*RGV
